The values below come from patent publication US9051325B2, “Bicyclic [5,6] imidazo pyrimodone compounds for use in the treatment of diseases or conditions mediated by Lp-PLA2” (GlaxoSmithKline Intellectual Property Development Limited, priority 2013, dated 2015).

The target of test [1] is T1, recombinant human Lp-PLA2 (Homo sapiens, UniProt Q13093).
T1 sequence (Q13093 22-441): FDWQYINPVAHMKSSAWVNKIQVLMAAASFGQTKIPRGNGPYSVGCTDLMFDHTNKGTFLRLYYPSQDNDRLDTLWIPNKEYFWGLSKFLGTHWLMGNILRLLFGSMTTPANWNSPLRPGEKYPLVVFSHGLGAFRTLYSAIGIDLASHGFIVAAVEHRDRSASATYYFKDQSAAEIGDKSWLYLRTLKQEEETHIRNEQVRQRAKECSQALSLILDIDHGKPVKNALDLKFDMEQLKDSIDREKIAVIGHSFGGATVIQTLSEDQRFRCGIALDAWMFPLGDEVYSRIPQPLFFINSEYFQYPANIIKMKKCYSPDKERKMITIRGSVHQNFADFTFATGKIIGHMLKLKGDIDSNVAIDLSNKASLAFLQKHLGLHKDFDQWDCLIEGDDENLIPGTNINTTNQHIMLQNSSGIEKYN
The test is described as follows: Recombinant human Lp-PLA2 assay (rhLp-PLA2, PED6 assay). Format: biochemical. The procedure, abridged:
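Compounds were preincubated 30 min with 4 nM […] rhLp-PLA2 in 50 mM HEPES pH 7.4, 150 mM NaCl, 1 mM CHAPS, then PED6 substrate […] was added for 20 min at room temperature in the dark. Fluorescence was read at ex 480/em 540, and pIC50 was fitted from 1:3 serial dilutions.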

For a further test, the target named is T2, Lp-PLA2 in human plasma (Homo sapiens, UniProt Q13093).
T2 construct: from tissue; host or cells: pooled human plasma
T2 sequence (Q13093 22-441): T1 sequence (Q13093 22-441)
The experiment in a line: Lp-PLA2 human plasma assay (Thio-PAF assay). Format: biochemical. Conditions: pooled human plasma; lower bounds; read-out: pIC50 values in the thio-PAF assay (converted). The procedure, abridged:
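Pooled human plasma preincubated 30 min with compounds, then given 2-thio-PAF substrate with CPM and NEM in 50 mM HEPES pH 7.4, 150 mM NaCl, 1 mM CHAPS. Reaction quenched after 2 min with TFA and read by fluorescence (ex 380/em 485) after 40 min at room temperature; pIC50 from curve fit.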

The mark [2] stands for this setting: lower bounds, read-out: pIC50 values in the PED6 assay (converted).
Setting [3] is: read-out: rhLp-PLA2 (PED6 assay) (pIC50) (converted).

Where two headings read alike, the source gives them in different places. Bounds are passed on as bounds.

On to `CN1c2cc(OCc3ccc(Oc4ccc(F)nc4)c(F)c3)nc(=O)n2CC1(C)C` [Example E98, 7-((3-fluoro-4-((6-fluoropyridin-3-yl)oxy)benzyl)oxy)-1,2,2-trimethyl-2,3-dihydroimidazo[1,2-c]pyrimidin-5(1H)-one], for which the IC50 in test [1] (setting [2]) was at most 1 nM; at Lp-PLA2 in human plasma it was at most 100 nM.

Take `CC1(C)Cn2c(cc(OCc3cc(F)c(Oc4cnc(C(F)(F)F)nc4)c(F)c3)nc2=O)N1` [Example E100, 7-((3,5-difluoro-4-((2-(trifluoromethyl)pyrimidin-5-yl)oxy)benzyl)oxy)-2,2-dimethyl-2,3-dihydroimidazo[1,2-c]pyrimidin-5(1H)-one]: the IC50 is at most 1 nM in test [1] (setting [2]) and at most 100 nM on Lp-PLA2 in human plasma.

In the case of `CC1(C)Cn2c(cc(OCc3ccc(Oc4cnc(C(F)(F)F)nc4)c(F)c3)nc2=O)N1` [Example E101, 7-((3-fluoro-4-((2-(trifluoromethyl)pyrimidin-5-yl)oxy)benzyl)oxy)-2,2-dimethyl-2,3-dihydroimidazo[1,2-c]pyrimidin-5(1H)-one], the IC50 is at most 1 nM in test [1] (setting [2]) and at most 100 nM at Lp-PLA2 in human plasma.

For the compound `[2H]C([2H])(Oc1cc2n(c(=O)n1)CC(C)(C)N2CC)c1cccc(F)c1F` [Example E102, 7-(dideutero(2,3-difluorobenzyl)oxy)-1-ethyl-2,2-dimethyl-2,3-dihydroimidazo[1,2-c]pyrimidin-5(1H)-one], the values for the IC50 (in test [1] (setting [2]); at Lp-PLA2 in human plasma) were at most 10 nM and at most 100 nM, respectively.

For the compound `CN1c2cc(OCc3cccc(F)c3F)nc(=O)n2CC1(C)C` [Example E103, 7-((2,3-difluorobenzyl)oxy)-1,2,2-trimethyl-2,3-dihydroimidazo[1,2-c]pyrimidin-5(1H)-one], the IC50 was at most 10 nM in test [1] (setting [2]) and at most 100 nM on Lp-PLA2 in human plasma.

With `[2H]C([2H])([2H])N1c2cc(OCc3cccc(F)c3F)nc(=O)n2CC1(C)C` [Example E104, 7-((2,3-difluorobenzyl)oxy)-1-trideuteromethyl-2,2-dimethyl-2,3-dihydroimidazo[1,2-c]pyrimidin-5(1H)-one], the IC50 in test [1] (setting [2]) is at most 10 nM; on Lp-PLA2 in human plasma it was at most 100 nM.

As for `[2H]C([2H])(Oc1cc2n(c(=O)n1)CC(C)(C)N2C(C)C)c1cccc(F)c1F` [Example E105, 7-(dideutero(2,3-difluorobenzyl)oxy)-1-isopropyl-2,2-dimethyl-2,3-dihydroimidazo-[1,2-c]pyrimidin-5(1H)-one], the IC50 in test [1] (setting [2]) is at most 1 nM; in test [1] (setting [3]), 0.631 nM; on Lp-PLA2 in human plasma it was at most 100 nM.

With `C[C@@H]1Cn2c(cc(OCc3ccc(F)c(F)c3)nc2=O)N1C` [Example E106, (R)-7-((3,4-difluorobenzyl)oxy)-1,2-dimethyl-2,3-dihydroimidazo[1,2-c]pyrimidin-5(1H)-one], the figures for the IC50 (in test [1] (setting [2]); on Lp-PLA2 in human plasma) were at most 10 nM and at most 100 nM, respectively.

`C[C@@H]1Cn2c(cc(OCc3ccc(Oc4ccc(C(F)(F)F)nc4)c(F)c3)nc2=O)N1C` [Example E107, (R)-7-((3-fluoro-4-((6-(trifluoromethyl)pyridin-3-yl)oxy)benzyl)oxy)-1,2-dimethyl-2,3-dihydroimidazo[1,2-c]pyrimidin-5(1H)-one]: the IC50 in test [1] (setting [2]) was at most 1 nM; on Lp-PLA2 in human plasma it was at most 100 nM.

As for `C[C@H]1Cn2c(cc(OCc3cc(F)c(F)c(F)c3)nc2=O)N1C` [Example E108, (S)-1,2-dimethyl-7-((3,4,5-trifluorobenzyl)oxy)-2,3-dihydroimidazo[1,2-c]pyrimidin-5(1H)-one], the IC50 was at most 10 nM in test [1] (setting [2]) and at most 100 nM on Lp-PLA2 in human plasma.

Consider `CN1c2cc(OCc3cc(F)c(F)c(F)c3)nc(=O)n2CC1(C)C` [Example E110, 1,2,2-trimethyl-7-((3,4,5-trifluorobenzyl)oxy)-2,3-dihydroimidazo[1,2-c]pyrimidin-5(1H)-one], for which the IC50 in test [1] (setting [2]) was at most 10 nM; at Lp-PLA2 in human plasma, at most 100 nM.

As for `CN1c2cc(OCc3ccc(Oc4ccc(C(F)(F)F)nc4)c(F)c3)nc(=O)n2CC1(C)C` [Example E112, 7-((3-fluoro-4-((6-(trifluoromethyl)pyridin-3-yl)oxy)benzyl)oxy)-1,2,2-trimethyl-2,3-dihydroimidazo[1,2-c]pyrimidin-5(1H)-one], the IC50 in test [1] (setting [2]) is at most 1 nM; on Lp-PLA2 in human plasma, at most 100 nM.

Take `CN1c2cc(OCc3cc(F)c(Oc4cncc(Cl)c4)c(F)c3)nc(=O)n2CC1(C)C` [Example E113, 7-((4-((5-chloropyridin-3-yl)oxy)-3,5-difluorobenzyl)oxy)-1,2,2-trimethyl-2,3-dihydroimidazo[1,2-c]pyrimidin-5(1H)-one]: the IC50 in test [1] (setting [2]) was at most 1 nM; on Lp-PLA2 in human plasma, at most 100 nM.

As to `CN1c2cc(OCc3cc(F)cc(F)c3)nc(=O)n2CC1(C)C` [Example E114, 7-((3,5-difluorobenzyl)oxy)-1,2,2-trimethyl-2,3-dihydroimidazo[1,2-c]pyrimidin-5(1H)-one], the IC50 is at most 1 nM in test [1] (setting [2]), 0.794 nM in test [1] (setting [3]) and at most 100 nM at Lp-PLA2 in human plasma.

As to `CC1(C)Cn2c(cc(OCc3cc(F)c(Oc4ccnc(F)c4)c(F)c3)nc2=O)N1` [Example E116, 7-((3,5-difluoro-4-((2-fluoropyridin-4-yl)oxy)benzyl)oxy)-2,2-dimethyl-2,3-dihydroimidazo[1,2-c]pyrimidin-5(1H)-one], the IC50 in test [1] (setting [2]) is at most 1 nM; on Lp-PLA2 in human plasma it was at most 100 nM.

For `CC1Cn2c(cc(OCc3ccc(Oc4cc(F)cc(C(F)(F)F)c4)c(F)c3)nc2=O)N1C` (stereo not shown) [Example E119, 7-((3-fluoro-4-(3-fluoro-5-(trifluoromethyl)phenoxy)benzyl)oxy)-1,2-dimethyl-2,3-dihydroimidazo[1,2-c]pyrimidin-5(1H)-one], the values for the IC50 (in test [1] (setting [2]); on Lp-PLA2 in human plasma) were at most 1 nM and at most 100 nM, respectively.

Consider `CC1Cn2c(cc(OCc3ccc(F)c(C#N)c3)nc2=O)N1C` (stereo not shown) [Example E121, 5-(((1,2-dimethyl-5-oxo-1,2,3,5-tetrahydroimidazo[1,2-c]pyrimidin-7-yl)oxy)methyl)-2-fluorobenzonitrile], for which the IC50 in test [1] (setting [2]) is at most 10 nM; on Lp-PLA2 in human plasma, at most 100 nM.

With `CN1c2cc(OCc3ccc(F)c(F)c3)nc(=O)n2CC1(C)C` [Example E122, 7-((3,4-difluorobenzyl)oxy)-1,2,2-trimethyl-2-dihydroimidazo[1,2-c]pyrimidin-5(1H)-one], the figures for the IC50 (in test [1] (setting [2]); at Lp-PLA2 in human plasma) were at most 1 nM and at most 100 nM, respectively.

`C[C@@H]1Cn2c(cc(OCc3ccc(Oc4cncc(C(F)(F)F)c4)c(C#N)c3)nc2=O)N1C` [Example E123, (R)-5-(((1,2-dimethyl-5-oxo-1,2,3,5-tetrahydroimidazo[1,2-c]pyrimidin-7-yl)oxy)methyl)-2-((5-(trifluoromethyl)pyridin-3-yl)oxy)benzonitrile]: the IC50 was at most 1 nM in test [1] (setting [2]) and at most 100 nM on Lp-PLA2 in human plasma.

Consider `CN1c2cc(OCc3cccc(C#N)c3)nc(=O)n2CC1(C)C` [Example E124, 3-(((1,2,2-trimethyl-5-oxo-1,2,3,5-tetrahydroimidazo[1,2-c]pyrimidin-7-yl)oxy)methyl)benzonitrile], for which the IC50 was at most 1 nM in test [1] (setting [2]) and at most 100 nM on Lp-PLA2 in human plasma.

Consider `CC1(C)Cn2c(cc(OCc3cc(F)c(Oc4ccnc(C(F)(F)F)c4)c(F)c3)nc2=O)N1` [Example E127, 7-((3,5-difluoro-4-((2-(trifluoromethyl)pyridin-4-yl)oxy)benzyl)oxy)-2,2-dimethyl-2,3-dihydroimidazo[1,2-c]pyrimidin-5(1H)-one], for which the IC50 in test [1] (setting [2]) was at most 1 nM; on Lp-PLA2 in human plasma it was at most 100 nM.

Turning to `CC1(C)Cn2c(cc(OCc3cc(F)c(Oc4cncc(Cl)c4)c(F)c3)nc2=O)N1` [Example E128, 7-((4-((5-chloropyridin-3-yl)oxy)-3,5-difluorobenzyl)oxy)-2,2-dimethyl-2,3-dihydroimidazo[1,2-c]pyrimidin-5(1H)-one], the IC50 in test [1] (setting [2]) was at most 1 nM; at Lp-PLA2 in human plasma, at most 100 nM.

As for `CCN1c2cc(OCc3cc(F)cc(F)c3)nc(=O)n2CC1(C)C` [Example E129, 7-((3,5-difluorobenzyl)oxy)-1-ethyl-2,2-dimethyl-2,3-dihydroimidazo[1,2-c]pyrimidin-5(1H)-one], the IC50 in test [1] (setting [2]) was at most 10 nM; on Lp-PLA2 in human plasma, at most 100 nM.

For the compound `C[C@H]1Cn2c(cc(OCc3cc(F)c(Oc4ccnc(C(F)(F)F)c4)c(F)c3)nc2=O)N1` [Example E131, (S)-7-((3,5-difluoro-4-((2-(trifluoromethyl)pyridin-4-yl)oxy)benzyl)oxy)-2-methyl-2,3-dihydroimidazo[1,2-c]pyrimidin-5(1H)-one], the figures for the IC50 (in test [1] (setting [2]); at Lp-PLA2 in human plasma) were at most 1 nM and at most 100 nM, respectively.

For the compound `CC1(C)Cn2c(cc(OCc3cc(F)c(Oc4ccc(Cl)nc4)c(F)c3)nc2=O)N1` [Example E133, 7-((4-((6-chloropyridin-3-yl)oxy)-3,5-difluorobenzyl)oxy)-2,2-dimethyl-2,3-dihydroimidazo[1,2-c]pyrimidin-5(1H)-one], the IC50 in test [1] (setting [2]) is at most 1 nM; at Lp-PLA2 in human plasma, at most 100 nM.
